Measurements: patent US12558428B2, “Heterobifunctional compounds and their use in treating disease” (Halda Therapeutics OpCo, Inc., priority 2024, dated 2026)
Like-named read-outs stand apart in the source and are kept apart here.

Key:
[1] = system: T-Rex 293 cells lacking increased expression of estrogen receptor alpha protein; experiment: Cellular growth inhibition assay, T-Rex 293 cells, (−) doxycycline; assay type: cell-based; details: T-REx-293, 72 h, 72 hours
Method: (§1) Exemplary compounds were tested for the ability to inhibit the proliferation of the following types of cells: (i) a T-Rex 293 cell line having increased expression of estrogen receptor alpha protein from exposure to doxycycline and (ii) a T-Rex 293 cell line lacking increased expression of estrogen receptor alpha protein.
(§2) The following types of cells were prepared for this experiment: (i) a T-Rex 293 cell line having increased expression of estrogen receptor alpha protein from exposure to doxycycline and (ii) a T-Rex 293 cell line lacking increased expression of estrogen receptor alpha protein. The ability of the test compounds to inhibit proliferation of the foregoing cell types was evaluated according to the procedures set forth below.
(§3) The doxycycline-inducible estrogen receptor alpha protein expressing cell line was established using the following protocol: T-Rex 293 cells were purchased from Invitrogen (Cat #R71007) and transfected using Lipofectamine 2000 with the wild-type estrogen receptor alpha protein sequence cloned into the pcDNA4/TO vector. Transfected cells were selected using 400 μg/mL Zeocin (Invitrogen Cat #R25001). Following selection, single clones were raised and maintained in Dulbecco's Modified Eagle Medium (DMEM) supplemented with 10% w/w Tetracycline-free fetal bovine serum (FBS) and 250 μg/mL Zeocin. Clones were analyzed for expression of estrogen receptor alpha protein in the presence and absence of 3 ng/mL doxycycline (Sigma Cat #D9891), and a single doxycycline-inducible clone (hereinafter “SC”) was selected for use in downstream assays.
(§4) The SC cells were seeded on poly-D-lysine coated, black clear-bottom 384-well plates at 2500/well, in 25 μL Phenol Red Free Dulbecco's Modified Eagle Medium (DMEM) supplemented with 10% w/w charcoal-dextran treated fetal bovine serum (FBS) and 1% w/w pen-strep, with or without 3 ng/mL doxycycline. Pen-Strep is a commercially available mixture of penicillin G and streptomycin, which is used in mammalian cell culture media to prevent bacterial contamination. Phenol Red Free Dulbecco's Modified Eagle Medium (DMEM) supplemented with 10% w/w charcoal-dextran treated fetal bovine serum (FBS) and 1% w/w pen-strep, with or without 3 ng/mL doxycycline is herein referred to as Treatment Medium. Following seeding of cells in the plates, the plates were spun at 300×g for 30 seconds, then equilibrated to room temperature for 30 minutes, and then deposited in a humidified tissue culture incubator maintained at 37° C. with 5% CO2.
(§5) At 24 hours after seeding of the cells, dilutions of test compound were prepared in DMSO and dissolved in Treatment Medium, to achieve a final DMSO concentration of 0.5% w/w, thereby providing the Test Compound Solution. A 25 μL aliquot of the Test Compound Solution was added to cells in the well plates. An equal volume of a solution containing DMSO and Treatment Medium was used as a negative control. Following treatment of cells with Test Compound Solution or said equal volume of a solution containing DMSO and Treatment Medium, the plates were spun at 300×g for 30 seconds, and then left in an incubator for 72 hours.
(§6) At the end of the treatment duration, cell viability was quantified with CellTiter-Glo 2.0 reagent (Promega Cat #G9243). For this purpose, plates were equilibrated to room temperature for 30 minutes, and then 25 μL of CellTiter-Glo 2.0 reagent was added to cells in the plate wells. Plates were then agitated on a shaker for two minutes at 500 rpm and subsequently incubated at room temperature for 10 minutes. Following incubation, the plates were spun at 3000×g for 30 seconds, then sealed with an optical adhesive cover, and luminescence readings were measured with an EnVision Plate Reader (Perkin Elmer).
(§7) Data was normalized using zero luminescence for baseline. […]

[2] = system: T-Rex 293 cells having increased expression of estrogen receptor alpha protein; experiment: Cellular growth inhibition assay, T-Rex 293 cells, (+) doxycycline; assay type: cell-based; details: T-REx-293, 72 h, 72 hours
Method: as §1, §2, §3, §4, §5, §6, §7

[3] = Table 7-A, T-Rex 293 cells without doxycycline (lacking increased ERα expression), CellTiter-Glo, read-out: (−) Dox GI50
[4] = Table 7-A, T-Rex 293 cells with doxycycline (increased ERα expression), CellTiter-Glo, read-out: (+) Dox GI50

| Compound | GI50 [1, 3] [µM] | GI50 [2, 4] [µM] | GI50 ([1]; T-Rex 293 cells without doxycycline, CellTiter-Glo 2.0, read-out: (−) Dox TRex ERa (GI50)) [µM] | GI50 ([2]; T-Rex 293 cells with doxycycline-induced ERα expression, CellTiter-Glo 2.0, read-out: (+) Dox TRex ERa (GI50)) [µM] |
| --- | --- | --- | --- | --- |
| COc1cc(N2CCN(CC3(O)CCN(c4ccc(C5=N[C@@H](C)c6nnc(C)n6-c6sc(C)c(C)c65)cc4)CC3)CC2)ccc1[C@@H]1c2ccc(O)cc2CC[C@@H]1c1ccccc1 (single isomer, unassigned) [III-321] | 0.5 to 2.5 | < 0.05 | – | – |
| COc1cc(N2CCN(CC3(O)CCN(c4ccc(C5=N[C@@H](C)c6nnc(C)n6-c6sc(C)c(C)c65)cc4)CC3)CC2)ccc1[C@H]1c2ccc(O)cc2CC[C@H]1c1ccccc1 (single isomer, unassigned) [III-322] | 0.05 to 0.5 | 0.05 to 0.5 | – | – |
| COc1cc(N2CCN(CC3(O)CCN(c4ccc(C5=N[C@@H](C)c6nnc(C)n6-c6sc(C)c(C)c65)c(F)c4)CC3)CC2)ccc1[C@H]1c2ccc(O)cc2CC[C@H]1c1ccc(F)cc1 (single isomer, unassigned) [III-327] | 0.05 to 0.5 | 0.05 to 0.5 | – | – |
| COc1cc(N2CCN(CC3(O)CCN(c4ccc(C5=N[C@@H](C)c6nnc(C)n6-c6sc(C)c(C)c65)cc4)CC3)CC2)ccc1[C@H]1c2ccc(O)cc2CC[C@H]1c1ccc(F)cc1F (single isomer, unassigned) [III-333] | 0.5 to 2.5 | 0.05 to 0.5 | – | – |
| COc1cc(N2CCN(CC3(O)CCN(c4ccc(C5=N[C@@H](C)c6nnc(C)n6-c6sc(C)c(C)c65)cc4)CC3)CC2)ccc1[C@@H]1c2ccc(O)cc2CC[C@@H]1c1ccc(F)cc1F (single isomer, unassigned) [III-334] | 0.5 to 2.5 | < 0.05 | – | – |
| COc1ccc([C@@H]2CCc3cc(O)ccc3[C@@H]2c2ccc(N3CCN(CC4(O)CCN(c5ccc(C6=N[C@@H](C)c7nnc(C)n7-c7sc(C)c(C)c76)cc5)CC4)CC3)cc2Cl)cc1 (single isomer, unassigned) [III-335] | 0.5 to 2.5 | 0.05 to 0.5 | – | – |
| COc1ccc([C@H]2CCc3cc(O)ccc3[C@H]2c2ccc(N3CCN(CC4(O)CCN(c5ccc(C6=N[C@@H](C)c7nnc(C)n7-c7sc(C)c(C)c76)cc5)CC4)CC3)cc2Cl)cc1 (single isomer, unassigned) [III-336] | 0.5 to 2.5 | < 0.05 | – | – |
| Cn1cc(-c2cc(C(C)(C)O)ccc2Oc2ccc(N3CCN(CC4CCN(c5ccc([C@@H]6c7ccc(O)cc7CC[C@@H]6c6ccccc6)cc5)CC4)CC3)cc2)c2cc[nH]c2c1=O [I-18, 4-(2-(4-(4-((1-(4-((1R,2S)-6-hydroxy-2-phenyl-1,2,3,4-tetrahydronaphthalen-1-yl)phenyl)piperidin-4-yl)methyl)piperazin-1-yl)phenoxy)-5-(2-hydroxypropan-2-yl)phenyl)-6-methyl-1,6-dihydro-7H-pyrrolo[2,3-c]pyridin-7-one] | – | – | 0.05 to 0.5 | < 0.05 |
| Cc1sc2c(c1C)C(c1ccc(N3CC(N4CCN(CCOc5ccc([C@@H]6c7ccc(O)cc7CC[C@@H]6c6ccccc6)cc5)CC4)C3)cc1)=NC(Cc1ncco1)c1nnc(C)n1-2 (stereo partly drawn) [III-41] | 0.05 to 0.5 | < 0.05 | – | – |
| COc1cc(N2CCN(CC3CCN(c4ccc(C5=N[C@@H](C)c6nnc(C)n6-c6sc(C)c(C)c65)cc4)CC3)CC2)c(F)cc1[C@@H]1c2ccc(O)cc2CC[C@@H]1c1ccc(F)cc1 [III-313] | 0.5 to 2.5 | < 0.05 | – | – |
| COc1cc(N2CCN(CC3CCN(c4ccc(C5=N[C@@H](C)c6nnc(C)n6-c6sc(C)c(C)c65)cc4)CC3)CC2)c(F)cc1[C@H]1c2ccc(O)cc2CC[C@H]1c1ccc(F)cc1 [III-314] | 0.5 to 2.5 | 0.05 to 0.5 | – | – |
| COc1cc(N2CCN(CC3CCN(c4ccc(C5=N[C@@H](C)c6nnc(C)n6-c6sc(C)c(C)c65)cc4)CC3)CC2)ccc1[C@H]1c2ccc(O)cc2CC[C@H]1c1ccc(F)cc1 [III-315] | 0.5 to 2.5 | 0.5 to 2.5 | – | – |
| COc1cc(N2CCN(CC3CCN(c4ccc(C5=N[C@@H](C)c6nnc(C)n6-c6sc(C)c(C)c65)cc4)CC3)CC2)ccc1[C@@H]1c2ccc(O)cc2CC[C@@H]1c1ccc(F)cc1 [III-316] | 0.5 to 2.5 | < 0.05 | – | – |
| COc1cc(N2CCN(CC3(O)CCN(c4ccc(C5=N[C@@H](C)c6nnc(C)n6-c6sc(C)c(C)c65)cc4)CC3)CC2)c(F)cc1[C@H]1c2ccc(O)cc2CC[C@H]1c1ccc(F)cc1 [III-319] | 0.05 to 0.5 | < 0.05 | – | – |
| COc1cc(N2CCN(CC3(O)CCN(c4ccc(C5=N[C@@H](C)c6nnc(C)n6-c6sc(C)c(C)c65)cc4)CC3)CC2)c(F)cc1[C@@H]1c2ccc(O)cc2CC[C@@H]1c1ccc(F)cc1 [III-320] | 0.5 to 2.5 | < 0.05 | – | – |
| Cc1sc2c(c1C)C(c1ccc(N3CCC(CN4CCN(c5ccc([C@@H]6c7ccc(O)cc7CC[C@@H]6c6ccccc6F)c(F)c5)CC4)CC3)cc1)=N[C@@H](C)c1nnc(C)n1-2 [III-323] | 0.5 to 2.5 | < 0.05 | – | – |
| Cc1sc2c(c1C)C(c1ccc(N3CCC(CN4CCN(c5ccc([C@H]6c7ccc(O)cc7CC[C@H]6c6ccccc6F)c(F)c5)CC4)CC3)cc1)=N[C@@H](C)c1nnc(C)n1-2 [III-324] | 0.05 to 0.5 | 0.05 to 0.5 | – | – |
| Cc1sc2c(c1C)C(c1ccc(N3CCC(CN4CCN(c5ccc([C@@H]6c7ccc(O)cc7CC[C@@H]6c6cccc(F)c6)c(F)c5)CC4)CC3)cc1)=N[C@@H](C)c1nnc(C)n1-2 [III-325] | 0.5 to 2.5 | 0.05 to 0.5 | – | – |
| Cc1sc2c(c1C)C(c1ccc(N3CCC(CN4CCN(c5ccc([C@H]6c7ccc(O)cc7CC[C@H]6c6cccc(F)c6)c(F)c5)CC4)CC3)cc1)=N[C@@H](C)c1nnc(C)n1-2 [III-326] | 0.5 to 2.5 | 0.5 to 2.5 | – | – |
| COc1cc(N2CCN(CC3(O)CCN(c4ccc(C5=N[C@@H](C)c6nnc(C)n6-c6sc(C)c(C)c65)c(F)c4)CC3)CC2)ccc1[C@@H]1c2ccc(O)cc2CC[C@@H]1c1ccc(F)cc1 [III-328, 1-(3-fluoro-4-((6S)-2,3,6,9-tetramethyl-6H-thieno[3,2-f][1,2,4]triazolo[4,3-a][1,4]diazepin-4-yl)phenyl)-4-((4-(4-((1S,2S)-2-(4-fluorophenyl)-6-hydroxy-1,2,3,4-tetrahydronaphthalen-1-yl)-3-methoxyphenyl)piperazin-1-yl)methyl)piperidin-4-ol] | 0.5 to 2.5 | < 0.05 | – | – |
| COc1cc(N2CCN(CC3CCN(c4ccc(C5=N[C@@H](C)c6nnc(C)n6-c6sc(C)c(C)c65)cc4)CC3)CC2)ccc1[C@H]1c2ccc(O)cc2CC[C@H]1c1ccc(C)cc1 [III-329] | 0.05 to 0.5 | 0.05 to 0.5 | – | – |
| COc1cc(N2CCN(CC3CCN(c4ccc(C5=N[C@@H](C)c6nnc(C)n6-c6sc(C)c(C)c65)cc4)CC3)CC2)ccc1[C@@H]1c2ccc(O)cc2CC[C@@H]1c1ccc(C)cc1 [III-330] | 0.05 to 0.5 | < 0.05 | – | – |
| COc1cc(N2CCN(CC3CCN(c4ccc(C5=N[C@@H](C)c6nnc(C)n6-c6sc(C)c(C)c65)c(F)c4)CC3)CC2)ccc1[C@H]1c2ccc(O)cc2CC[C@H]1c1ccc(C)cc1 [III-331] | 0.5 to 2.5 | 0.5 to 2.5 | – | – |
| COc1cc(N2CCN(CC3CCN(c4ccc(C5=N[C@@H](C)c6nnc(C)n6-c6sc(C)c(C)c65)c(F)c4)CC3)CC2)ccc1[C@@H]1c2ccc(O)cc2CC[C@@H]1c1ccc(C)cc1 [III-332] | 0.05 to 0.5 | < 0.05 | – | – |
